Measurements reported in patent US9364462B2, “Alpha-1-adrenergic receptor agonist therapy” (The Regents of the University of California, priority 2012, dated 2016).

Key:
[1] = Pressure overload cardiomyopathy (transverse aortic constriction, TAC) model; format: in vivo, mouse
Source text: FIG. 7. A61603 rescues pressure overload cardiomyopathy. Mice had echo 2 weeks after TAC, at which time they were randomized to treatment with A61603, at the same low dose, or vehicle. Fractional shortening, an index of cardiac function, was depressed by TAC, and improved with A61603, but not with vehicle.
FIG. 8. A61603 in pressure overload cardiomyopathy improves growth and protection, and reduces fibrosis.
Studies in mice looking at alpha-1 agonist therapy, using A61603, in a model of heart failure due to pressure overload (transverse aortic constriction model). A model of pressure overload was tested for 2 reasons: (1) test generality of A61603 effects in different types of cardiomyopathy; and (2) test treatment (rescue), rather than prevention, i.e. A61603 given at an interval of time after injury, when cardiomyopathy was already manifest. We used an adult mouse model of transverse aortic constriction (TAC), with the aorta surgically narrowed, so that the heart had to pump against an increased pressure (pressure overload). […] A61603 treatment rescued the cardiomyopathy, as measured by heart function (FIG. 7). […] Thus improvement in function caused by A61603 was again due to direct effects on cardiac muscle cells. The alpha-1A agonist A61603 at a low dose rescues (e.g. treats) cardiomyopathy due to pressure overload, an injury that simulates several types of cardiac disease, and the mechanism is improvement of cardiac myocytes.

[2] = Ischemic, post-myocardial infarction (LAD ligation) cardiomyopathy model; format: in vivo, mouse
Source text: FIG. 9. A61603 rescues ischemic, post-myocardial infarction (MI) cardiomyopathy. Mice had echo 4 weeks after LAD ligation (MI), at which time they were randomized to treatment with A61603, at the same low dose, or vehicle.
FIG. 10. A61603 in ischemic, post-MI cardiomyopathy improves growth and protection, and reduces fibrosis. Values are normalized to mice treated with vehicle. Mice treated with A61603 had smaller atria, less fibrosis, higher fractional shortening (FS), smaller left ventricle end diastolic diameter (LVEDD), and larger myocyte size in the surviving heart (MC CSA). The size of the MI was unchanged, as expected because treatment started 4 weeks after LAD ligation, by which time the MI had healed.
Studies in mice looking at alpha-1 agonist therapy, using A61603, in a model of heart failure and cardiomyopathy due to myocardial infarction (heart attack). We used an animal model of myocardial infarction to test whether the alpha-1A agonist A61603 could rescue (e.g. treat) cardiomyopathy, when treatment was initiated at some time after injury (e.g. after the acute period was complete). Rescue mimics what is seen commonly in the clinic, where patients are admitted with HF, caused by a cardiomyopathy that has been present for months or years. This model was a model of ischemic, post-myocardial infarction (MI) cardiomyopathy. Ischemic heart disease caused by coronary atherosclerosis is extremely common and ischemic and overload cardiomyopathies associated with these diseases comprise the largest group of patients with HF. We used a mouse model of coronary ligation to cause MI. The mouse coronary ligation was permanent, however, patients typically have some form of reperfusion (e.g. angioplasty). We used a mouse model where the MI is healed completely, which is typical for patients admitted with HF late after MI. A61603 treatment rescued (e.g treated) the cardiomyopathy, as measured by heart function (FIG. 9A-B).
The improvement in function caused by A61603 after MI was again due to direct effects on ardiac muscle cells (FIG. 10). In this case, the effect was to increase the size of muscle cells in the surviving heart wall, helping restore the total amount of contracting heart muscle. There was also less fibrosis than control. The smaller weight of the atria indicates lower pressures within the left ventricle, a beneficial functional outcome, and the smaller diameter of the left ventricle indicates less cardiac enlargement, also a beneficial outcome.

[3] = 1 week subcutaneous infusion (osmotic minipump) in adult mice: BP and heart signaling; format: in vivo, mouse
Procedure: FIG. 5. A61603 activates heart signaling at a BP-neutral dose. A61603 was infused subcutaneously (osmotic minipump) for 1 week in adult mice, and BP was measured daily. There was no change in average BP at the low dose, in agreement with the intravenous (IV) route in another study, and with phenylephrine (PE) given in humans (left side). BP effects of A61603 are absent in the alpha-1A KO (AKO), again showing the selectivity of the drug for that receptor (left). At the end of 1 week, the heart was removed to measure ERK activation, and increases in heart mRNAs and area (size), reflecting protective (ERK) adaptive (mRNAs, area) effects on heart muscle cells. A61603 at the low dose of 10 ng/kg/d increased these endpoints.
The classic effect of alpha-1-agonists is to increase BP by stimulating smooth muscle cells to contract. It could be a disadvantage in heart failure (HF) therapy to increase BP excessively. On the other hand, all current recommended drugs in HF reduce BP, and a drug that increased BP slightly might have a strong therapeutic advantage. […] The foregoing experiments provided the rationale to test treatment with A61603 at 10 ng/kg/d in a mouse model of cardiomyopathy and HF.

α1AR = details: Evans et al. (2011); cited from earlier work
kinase ERK = experiment: ERK activation in neonatal rat cardiac muscle cells in vitro; format: cell-based; details: FIG. 1
Source text: FIG. 1. A61603 protects neonatal cardiac muscle cells.

α1A receptors = details: cited from earlier work
[4] = Right ventricle cardiomyopathy in pulmonary hypertension (bleomycin) model; format: in vivo, mouse
Source text: FIG. 11. A61603 reduces right ventricle (RV) cardiomyopathy in pulmonary hypertension. Mice had bleomycin instilled into the trachea and treatment with A61603 or vehicle. […] Mice with the alpha-1A knocked out did worse (α1ABKO).
Studies in mice looking at alpha-1 agonist therapy, using A61603, in a model of right ventricular failure from pulmonary hypertension. Failure of the right ventricle (RV) is a serious consequence of HF due to disease of the left ventricle (LV), and is also seen as an isolated problem, e.g. in lung disease (e.g. lung fibrosis), where treatment is extremely limited. Experiments were conducted with A61603 therapy in a mouse model of RV cardiomyopathy caused by pulmonary hypertension, which in turn was caused by lung fibrosis. Installation of bleomycin into the lung, caused fibrosis and secondary pulmonary hypertension and RV failure. Mice were treated continuously with A61603 or vehicle.

CS(=O)(=O)Nc1c(O)ccc2c1CCCC2C1=NCCN1 (stereo not drawn) [A61603, N-[1-(4,5-dihydro-1H-imidazol-2-yl)-6-hydroxy-tetralin-5-yl]methanesulfonamide]
degree of overload (the gradient) ([1]; A61603 vs vehicle group after TAC): the same in both groups | adaptive proteins (myosin or MF20 and beta-myosin or bMHC) ([1]; TAC): more adaptive proteins | collagen fibrosis (Col I) ([1]; TAC): less collagen fibrosis | heart weight normalized to body weight (HW/BW) ([1]; TAC): less abnormal enlargement | protection (ERK) ([1]; TAC): higher protection | fractional shortening ([1]; treatment started 2 weeks after TAC, low dose, vs vehicle): improved | atria size ([2]; post-MI, normalized to vehicle): smaller atria | fibrosis ([2]; post-MI, normalized to vehicle): less fibrosis | left ventricle end diastolic diameter (LVEDD) ([2]; post-MI, normalized to vehicle): smaller | myocyte size in the surviving heart (MC CSA) ([2]; post-MI, normalized to vehicle): larger | fractional shortening (FS) ([2]; post-MI, normalized to vehicle, FIG. 10): higher | size of the MI ([2]; post-MI, treatment started 4 weeks after LAD ligation): unchanged | fractional shortening ([2]; treatment started 4 weeks after LAD ligation (MI), low dose, vs vehicle): stayed the same or improved | heart ERK activation ([3]; 10 ng/kg/d, end of 1 week): increased | heart area (size) ([3]; 10 ng/kg/d, end of 1 week): increased | heart mRNAs ([3]; 10 ng/kg/d, end of 1 week): increased | BP effects in alpha-1A KO (AKO) ([3]; alpha-1A KO mice, subcutaneous infusion 1 week): absent | average BP ([3]; low dose, subcutaneous infusion 1 week, BP measured daily): no change | cAMP accumulation through α1AR relative to cirazoline (α1AR): stronger stimulator | activation of the kinase ERK (kinase ERK): high efficacy and potency | potency at α1A receptors relative to α1B or α1D sites (α1A receptors; Knepper et al. (1995)): at least 35 fold | potency as α1A AR agonist relative to phenylephrine, methoxamine and midodrine (α1A receptors): more potent | RV failure (RV weight normalized to body weight) ([4]; bleomycin into trachea, A61603 vs vehicle): reduced or prevented RV failure | function of RV muscle taken from treated mice, studied in vitro ([4]; bleomycin model): better function
